Each structure is given as a SMILES string.

The text below walks through data of US6716987B1, “Derivatives of benzofuran or benzodioxazole compounds” (Kyowa Hakko Kogyo Co., Ltd., priority 1995, dated 2004).

One data set has as its target T1, phosphodiesterase 4A (Homo sapiens, UniProt P27815).
T1 construct: made in house; host or cells: E. coli
Kind of data set: Recombinant human PDE4A assay. The class given is biochemical. As to conditions: for inhibition at 0.1 µM: 10^−7 M, read-out: Enzyme Inhibitory Activity (%, 10^−7 M).

Data set [1] relates to cAMP-specific phosphodiesterase (PDE IV). Kind of data set: Inhibition of the PDE IV enzyme derived from a dog trachea. It is filed as biochemical. As to conditions: test compound 10^−6 M; PDE IV from dog tracheal smooth muscle; substrate cAMP 1 μM. An outline of the steps: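 Enzyme purified from dog tracheal smooth muscle; [3H]cAMP substrate at 1 μM final in 50 mM BES pH 7.2, 1 mM MgCl2, 0.1 mg/ml soybean trypsin inhibitor, 30° C for 10–30 min, 1.7% DMSO final. After HCl stop, product converted to adenosine by 5′-nucleotidase, separated on DEAE-Sephadex and scintillation-counted.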

T1 sequence (P27815 224-886 limits assumed): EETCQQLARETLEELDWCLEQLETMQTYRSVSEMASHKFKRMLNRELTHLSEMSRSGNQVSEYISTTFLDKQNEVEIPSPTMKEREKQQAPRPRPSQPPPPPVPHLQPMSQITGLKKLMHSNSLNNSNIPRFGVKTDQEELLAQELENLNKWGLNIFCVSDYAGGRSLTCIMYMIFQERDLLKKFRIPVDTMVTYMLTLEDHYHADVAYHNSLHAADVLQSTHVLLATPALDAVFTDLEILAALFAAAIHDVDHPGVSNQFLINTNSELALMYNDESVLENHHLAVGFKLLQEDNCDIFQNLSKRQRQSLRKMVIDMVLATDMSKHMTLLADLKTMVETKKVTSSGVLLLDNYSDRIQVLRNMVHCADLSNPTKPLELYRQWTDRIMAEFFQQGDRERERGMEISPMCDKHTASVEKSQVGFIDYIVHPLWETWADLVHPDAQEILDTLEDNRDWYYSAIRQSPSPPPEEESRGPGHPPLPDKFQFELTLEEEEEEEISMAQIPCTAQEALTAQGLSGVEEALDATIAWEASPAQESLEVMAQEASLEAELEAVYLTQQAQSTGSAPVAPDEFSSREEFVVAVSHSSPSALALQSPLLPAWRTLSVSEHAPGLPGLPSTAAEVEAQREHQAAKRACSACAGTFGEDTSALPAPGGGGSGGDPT

In the case of `COc1ccc(C(=O)Nc2c(Cl)cncc2Cl)c2cc(C(=O)c3ccccc3)oc12` [Compound 35], the “Enzyme Inhibitory Activity (%, 10^−7 M)” value on phosphodiesterase 4A turned out to be 100%.

Turning to `COc1ccc(/C=C/c2c(Cl)cncc2Cl)c2cc(-c3ccccn3)oc12` [Compound 84, (E)-4-[2-(3,5-Dichloro-4-pyridyl)ethenyl]-7-methoxy-2-(2-pyridyl)benzofuran], the melting point was 157 to 158 °C. For the same compound, the inhibition at 0.1 µM on phosphodiesterase 4A is 98%.

Compound `COc1ccc(C(=O)Cc2c(Cl)cncc2Cl)c2c1OC1(CCCCC1)C2` [Compound 101, 4-[2-(3,5-Dichloro-4-pyridyl)-1-oxoethyl]-7-methoxy-spiro[2,3-dihydrobenzofuran-2,1′-cyclohexane]] returned a melting point of 149 to 151 °C. Besides, at phosphodiesterase 4A, the inhibition at 0.1 µM came to 100%.

Regarding `COc1ccc(C(=O)Cc2ccncc2)c2c1OC1(CCCCC1)C2.Cl` [Compound 102, 7-Methoxy-4-[1-oxo-2-(4-pyridyl)ethyl]-spiro[2,3-dihydrobenzofuran-2,1′-cyclohexane].hydrochloride], the “Enzyme Inhibitory Activity (%, 10^−7 M)” value at phosphodiesterase 4A is reported as 95%.

Turning to `COc1ccc(C(=O)Cc2c(Cl)cncc2Cl)c2cc(-c3ccncc3)oc12.Cl.Cl` [Compound 114, 4-[2-(3,5-Dichloro-4-pyridyl)-1-oxoethyl]-7-methoxy-2-(4-pyridyl)benzofuran.2 hydrochloride], on phosphodiesterase 4A, the “Enzyme Inhibitory Activity (%, 10^−7 M)” value came to 100%.

In turn, `COc1ccc(C(=O)Nc2c(Cl)cncc2Cl)c2c1OC1(C=C2)CCCC1` [Compound 123, 5-(3,5-Dichloro-4-pyridylaminocarbonyl)-8-methoxy-spiro[benzopyran-2,1′-cyclopentane]] gave a melting point of 129 to 131 °C. For the same compound, the inhibition at 0.1 µM on phosphodiesterase 4A came out at 87%.

In turn, `COc1ccc(C(=O)Cc2c(Cl)cncc2Cl)c2c1CC1(CCCC1)O2` [Compound 132, 7-[2-(3,5-Dichloro-4-pyridyl)-1-oxoethyl]-4-methoxy-spiro[2,3-dihydrobenzofuran-2,1′-cyclopentane]] came in with a melting point of 70 to 72 °C. The “Enzyme Inhibitory Activity (%, 10^−6 M)” value in data set [1] was found to be 66%.

In the case of `COc1ccc(C(=O)Nc2c(Cl)cncc2Cl)c2c1OC1(CCCC1)O2` [Compound 134, 7-(3,5-Dichloro-4-pyridylaminocarbonyl)-4-methoxy-spiro[1,3-benzodioxole-2,1′-cyclopentane]], the melting point fell in the range of 168 to 170 °C. In addition, the inhibition at 0.1 µM at phosphodiesterase 4A was determined as 100%.

Consider `COc1ccc(C=Cc2c(Cl)cncc2Cl)c2c1OC1(CCCC1)O2` [Compound 138, 7-[2-(3,5-Dichloro-4-pyridyl)ethenyl]-4-methoxy-spiro[1,3-benzodioxole-2,1′-cyclopentane]], for which the melting point fell in the range of 100 to 101 °C. In addition, at phosphodiesterase 4A, the inhibition at 0.1 µM came out at 100%.

`COc1ccc(C(=O)Cc2c(Cl)cncc2Cl)c2c1OC1(CCCC1)O2` [Compound 140, 7-[2-(3,5-Dichloro-4-pyridyl)-1-oxoethyl]-4-methoxy-spiro[1,3-benzodioxole-2,1′-cyclopentane]]: the inhibition at 0.1 µM on phosphodiesterase 4A was 100%.

On to `COc1ccc(C(=O)Cc2ccncc2)c2c1OC1(CCCC1)O2.Cl` [Compound 141, 4-Methoxy-7-[1-oxo-2-(4-pyridyl)ethyl]-spiro[1,3-benzodioxole-2,1′-cyclopentane].hydrochloride], for which the “Enzyme Inhibitory Activity (%, 10^−7 M)” value on phosphodiesterase 4A was found to be 76%.

On to `COc1ccc(C#Cc2ccncc2)c2c1OC1(CCCC1)C2` [Compound 142, 7-Methoxy-4-[2-(4-pyridyl)ethynyl]-spiro[2,3-dihydrobenzofuran-2,1′-cyclopentane]], for which the melting point lay within 128 to 131 °C. Further, the “Enzyme Inhibitory Activity (%, 10^−6 M)” value in data set [1] is recorded as 76%.

Compound `COc1ccc(C(=O)Cc2c(Cl)cncc2Cl)c2c(CC(=O)OCCc3ccccc3)coc12` [Compound 153, 4-[2-(3,5-Dichloro-4-pyridyl)-1-oxoethyl]-7-methoxy-3-phenethyloxycarbonylmethylbenzofuran] showed a melting point of 183 to 184 °C. For the same compound, the inhibition at 0.1 µM at phosphodiesterase 4A amounted to 94%.

The compound `COc1ccc(C(=O)Cc2c(Cl)cncc2Cl)c2c(CC(=O)OCc3ccccc3[N+](=O)[O-])coc12` [Compound 154, 4-[2-(3,5-Dichloro-4-Pyridyl)-1-oxoethyl]-7-methoxy-3-[(2-nitrobenzyl)oxycarbonylmethyl]benzofuran] gave a melting point of 200 to 201 °C. Besides, the inhibition at 0.1 µM at phosphodiesterase 4A was 92%.

In turn, `COc1ccc(C(=O)Cc2c(Cl)cncc2Cl)c2c(CC(=O)NCc3ccccc3)coc12` [Compound 155, 3-Benzylaminocarbonylmethyl-4-[2-(3,5-dichloro-4-pyridyl)-1-oxoethyl]-7-methoxybenzofuran] came in with a melting point of 244 to 246 °C. Besides, the inhibition at 0.1 µM at phosphodiesterase 4A was 96%.

`COc1ccc(C(=O)Cc2c(Cl)cncc2Cl)c2c(CC(=O)Nc3cccnc3)coc12` [Compound 156, 4-[2-(3,5-Dichloro-4-pyridyl)-1-oxoethyl]-7-methoxy-3-[(3-pyridyl)aminocarbonylmethyl]benzofuran] gave a melting point of 252 to 255 °C. Moreover, the inhibition at 0.1 µM on phosphodiesterase 4A is 90%.

With `COc1ccc(C(=O)Cc2c(Cl)cncc2Cl)c2c(CC(=O)NCc3ccccn3)coc12.Cl.Cl` [Compound 157, 4-[2-(3,5-Dichloro-4-pyridyl)-1-oxoethyl]-7-methoxy-3-[(2-pyridylmethyl)aminocarbonylmethyl]benzofuran.2 hydrochloride], on phosphodiesterase 4A, the “Enzyme Inhibitory Activity (%, 10^−7 M)” value turned out to be 89%.

As to `CCOC(=O)c1coc2c(OC)ccc(C(=O)Cc3c(Cl)cncc3Cl)c12` [Compound 159, Ethyl 4-[2-(3,5-dichloro-4-pyridyl)-1-oxoethyl]-7-methoxybenzofuran-3-carboxylate], the inhibition at 0.1 µM at phosphodiesterase 4A was determined as 99%.

`COc1ccc(C(=O)Cc2c(Cl)cccc2Cl)c2cc(C(=O)c3ccccn3)oc12` [Compound 160, 4-[2-(2,6-Dichlorophenyl)-1-oxoethyl]-7-methoxy-2-(2-pyridylcarbonyl)benzofuran] displayed a melting point of 228 to 229 °C. For the same compound, the inhibition at 0.1 µM on phosphodiesterase 4A came to 91%.

In turn, `COc1ccc(C(=O)Cc2c(Cl)cccc2Cl)c2cc(C(=O)Nc3cccc(F)c3)oc12` [Compound 161, 4-[2-(2,6-Dichlorophenyl)-1-oxoethyl]-2-[(3-fluorophenyl)aminocarbonyl]-7-methoxybenzofuran] gave a melting point of 251 to 252 °C. Moreover, on phosphodiesterase 4A, the inhibition at 0.1 µM stood at 87%.

`COc1ccc(C(=O)Cc2c(Cl)cccc2Cl)c2cc(C(=O)c3ccccc3)oc12` [Compound 163, 2-Benzoyl-4-[2-(2,6-dichlorophenyl)-1-oxoethyl]-7-methoxybenzofuran] registered a melting point of 223 to 224 °C. Moreover, the inhibition at 0.1 µM at phosphodiesterase 4A was found to be 96%.

Take `COc1ccc(C(=O)Cc2ccncc2)c2cc(C(=O)Nc3ccccc3)oc12.Cl` [Compound 165, 7-Methoxy-4-[1-oxo-2-(4-pyridyl)ethyl]-2-(phenylaminocarbonyl)benzofuran.hydrochloride]: the “Enzyme Inhibitory Activity (%, 10^−7 M)” value on phosphodiesterase 4A is listed as 64%.

Take `COc1ccc(C(=O)Nc2c(Cl)cccc2Cl)c2cc(C(=O)c3ccccc3)oc12` [Compound 168, 2-Benzoyl-4-[(2,6-dichiorophenyl)aminocarbonyl]-7-methoxybenzofuran]: the “Enzyme Inhibitory Activity (%, 10^−7 M)” value at phosphodiesterase 4A amounted to 96%.

Take `COc1ccc(C(=O)Cc2c(Cl)cncc2Cl)c2c1OC1(CCCCCC1)O2` [Compound 177, 7-[2-(3,5-Dichloro-4-pyridyl)-1-oxoethyl)-4-methoxy-spiro[1,3-benzodioxole-2,1′-cycloheptane]]: at phosphodiesterase 4A, the inhibition at 0.1 µM is 93%.

`COc1ccc(C(=O)Cc2c(Cl)cncc2Cl)c2c1OCCCO2` [Compound 189, 6-[2-(3,5-dichloro-4-pyridyl)-1-oxoethyl]-3,4-dihydro-9-methoxy-2H-1,5-benzodioxepin] yielded a melting point of 150 to 151 °C. Also, on phosphodiesterase 4A, the inhibition at 0.1 µM was determined as 84%.

As for `COc1ccc(/C=C/c2c(Cl)cncc2Cl)c2c1OCCCO2` [Compound 191, (E)-6-[2-(3,5-dichloro-4-pyridyl)ethenyl]-3,4-dihydro-9-methoxy-2H-1,5-benzodioxepin], the melting point lay in the range of 118 to 120 °C. Also, at phosphodiesterase 4A, the inhibition at 0.1 µM worked out at 84%.

Compound `COc1ccc(C(=O)Cc2c(Cl)cncc2Cl)c2c1OCCCCO2` [Compound 194, 7-[2-(3,5-dichloro-4-pyridyl)-1-oxoethyl]-10-methoxy-2,3,4,5-tetrahydro-1,6-benzodioxocin] showed a melting point of 142 to 143 °C. In addition, the inhibition at 0.1 µM on phosphodiesterase 4A amounted to 92%.

For the compound `COc1ccc(C(=O)Cc2c(Cl)c[n+]([O-])cc2Cl)c2c1OCCCCO2` [Compound 195, 7-[2-(3,5-dichloro-N-oxo-4-pyridyl)-1-oxoethyl]-10-methoxy-2,3,4,5-tetrahydro-1,6-benzodioxocin], the “Enzyme Inhibitory Activity (%, 10^−7 M)” value on phosphodiesterase 4A is on record as 93%.

Consider `COc1ccc(C(=O)Nc2c(Cl)cncc2Cl)c2c1OC(C)(C)O2` [Compound 199, 7-(3,5-dichloro-4-pyridylaminocarbonyl)-4-methoxy-2,2-dimethyl-3,4-benzodioxole], for which the “Enzyme Inhibitory Activity (%, 10^−7 M)” value on phosphodiesterase 4A was found to be 57%.
